Assay [1] addresses Plasminogen (Homo sapiens, UniProt P00747). Nature of the assay: Compound was evaluated for its inhibitory potency against plasmin.
Assay [2] addresses Tryptase (Homo sapiens, UniProt Q9BZJ3+Q15661+Q9NRR2). Nature of the assay: Evaluated for its inhibitory potency against tryptase. The class given is protein assay.
Assay [3] deals with Prothrombin (Homo sapiens, UniProt P00734). Nature of the assay: Compound was evaluated for its inhibitory potency against thrombin.
Assay [4] addresses Serine protease 1 (Homo sapiens, UniProt P07477). Briefly: Compound was evaluated for its inhibitory potency against trypsin.

Molecules are shown by their SMILES. pKi: −log10 of the molar value.

Chain of Plasminogen (P00747 97-580 limits assumed): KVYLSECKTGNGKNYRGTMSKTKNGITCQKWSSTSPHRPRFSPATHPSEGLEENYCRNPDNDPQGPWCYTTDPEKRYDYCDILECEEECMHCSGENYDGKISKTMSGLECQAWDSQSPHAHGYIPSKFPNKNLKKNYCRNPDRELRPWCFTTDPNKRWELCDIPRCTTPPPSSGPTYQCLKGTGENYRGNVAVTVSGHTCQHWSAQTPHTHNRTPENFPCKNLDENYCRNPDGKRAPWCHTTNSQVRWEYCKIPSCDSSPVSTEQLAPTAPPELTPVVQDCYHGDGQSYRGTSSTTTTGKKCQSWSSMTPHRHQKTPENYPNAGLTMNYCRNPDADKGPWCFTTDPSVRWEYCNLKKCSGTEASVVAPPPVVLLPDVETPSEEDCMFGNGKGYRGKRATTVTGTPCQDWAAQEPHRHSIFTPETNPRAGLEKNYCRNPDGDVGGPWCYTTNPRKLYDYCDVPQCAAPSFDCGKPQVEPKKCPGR
Chain of Plasminogen (P00747 581-810 limits assumed): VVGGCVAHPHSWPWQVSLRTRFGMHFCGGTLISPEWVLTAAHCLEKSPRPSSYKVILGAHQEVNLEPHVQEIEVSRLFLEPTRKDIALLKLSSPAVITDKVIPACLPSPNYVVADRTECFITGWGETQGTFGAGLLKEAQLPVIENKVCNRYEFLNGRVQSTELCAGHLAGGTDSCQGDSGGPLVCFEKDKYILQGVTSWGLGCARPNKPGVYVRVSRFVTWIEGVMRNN
Chain of Serine protease 1 (P07477 whole entry): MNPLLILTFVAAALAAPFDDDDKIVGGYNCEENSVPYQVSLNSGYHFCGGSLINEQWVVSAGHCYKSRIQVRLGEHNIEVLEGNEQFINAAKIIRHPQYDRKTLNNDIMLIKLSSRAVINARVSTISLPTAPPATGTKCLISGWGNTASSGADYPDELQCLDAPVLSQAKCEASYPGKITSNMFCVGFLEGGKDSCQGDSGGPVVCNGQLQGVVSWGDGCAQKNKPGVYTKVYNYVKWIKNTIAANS

For orientation: pKi means the negative decadic logarithm of the Ki, by convention in mol/L. Low values mean a high Ki, high ones a low Ki. As usually defined, the Ki is the dissociation constant of the complex between target and ligand, obtained from inhibition or displacement. A high value points to a looser hold on the target. Regarding `N=C(N)c1ccc(CNC(=O)N2CCN(C(=O)O[C@H]3CCC[C@@H](OC(=O)N4CCN(C(=O)NCc5ccc(C(=N)N)cc5)CC4)CCC3)CC2)cc1`, the pKi in assay [1] was 3.87; in assay [3] it was 4.22; in assay [4], 4.60. The compound also yielded a Ki in assay [2] of 0.009 µM.

Consider `N=C(N)Nc1ccc(CNC(=O)N2CCN(C(=O)O[C@H]3CCC[C@@H](OC(=O)N4CCN(C(=O)CCSc5ccncc5)CC4)CCC3)CC2)cc1`, for which the results for the pKi in assay [1], in assay [3] and in assay [4] were under 3.00, 3.13 and 3.81, respectively. Besides, in assay [2], the Ki amounted to 0.08 µM.

With `N=C(N)Nc1ccc(CNC(=O)N2CCN(C(=O)CCCCC(=O)N3CCN(C(=O)NCc4ccc(NC(=N)N)cc4)CC3)CC2)cc1`, the values for the pKi in assay [1], in assay [3] and in assay [4] were 3.50, under 3.00 and 4.27, respectively. The Ki in assay [2] worked out at 0.044 µM.

As for `CNCc1ccc(CNC(=O)N2CCN(C(=O)O[C@H]3CCC[C@@H](OC(=O)N4CCN(C(=O)NCc5ccc(CNC)cc5)CC4)CCC3)CC2)cc1`, the pKi in assay [1], in assay [3] and in assay [4] was under 3.00 throughout. In assay [2], this compound registered a Ki of 6 µM.

`NCCCCCCNC(=O)N1CCN(C(=O)O[C@H]2CCC[C@@H](OC(=O)N3CCN(C(=O)NCCCCCCN)CC3)CCC2)CC1`: the pKi in assay [1], in assay [3] and in assay [4] was under 3.00 in each case. The same compound registered a Ki in assay [2] of 1 µM.

Take `NCCCCCNC(=O)N1CCN(C(=O)O[C@H]2CCC[C@@H](OC(=O)N3CCN(C(=O)NCCCCCN)CC3)CCC2)CC1`: the pKi in assay [1] was under 3.00; in assay [3], under 3.00; in assay [4], 3.12. For the same compound, in assay [2], the Ki turned out to be 0.011 µM.

In the case of `CC(=N)N1CCC(CNC(=O)N2CCN(C(=O)O[C@H]3CCC[C@@H](OC(=O)N4CCN(C(=O)NCC5CCN(C(C)=N)CC5)CC4)CCC3)CC2)CC1`, the pKi in assay [1], in assay [3] and in assay [4] was under 3.00 each time. This compound came in with a Ki in assay [2] of over 1000 µM.

Take `N=C(N)Nc1ccc(CC(=O)N2CCN(C(=O)O[C@H]3CCC[C@@H](OC(=O)N4CCN(C(=O)Cc5ccc(NC(=N)N)cc5)CC4)CCC3)CC2)cc1`: the pKi in assay [1] was under 3.00; in assay [3], 3.59; in assay [4], 4.09. This compound had a Ki in assay [2] of 0.0005 µM.

For the compound `N=C(N)c1ccc(CCNC(=O)N2CCN(C(=O)O[C@H]3CCC[C@@H](OC(=O)N4CCN(C(=O)NCCc5ccc(C(=N)N)cc5)CC4)CCC3)CC2)cc1`, the results for the pKi in assay [1], in assay [3] and in assay [4] were 4.22, 4.44 and 4.18, respectively. In assay [2], this compound had a Ki of 0.44 µM.

With `N=C(N)c1ccc(CC(=O)N2CCN(C(=O)O[C@H]3CCC[C@@H](OC(=O)N4CCN(C(=O)Cc5ccc(C(=N)N)cc5)CC4)CCC3)CC2)cc1`, the pKi in assay [1] was 3.81; in assay [3] it was 4.47; in assay [4], 4.96. In assay [2], this compound came in with a Ki of 0.0002 µM.

For the compound `N=C(N)Nc1ccc(CNC(=O)N2CCN(C(=O)O[C@H]3CCC[C@@H](OC(=O)N4CCN(C(=O)CCNc5ccncc5)CC4)CCC3)CC2)cc1`, the pKi in assay [1] was under 3.00; in assay [3], under 3.00; in assay [4], 3.95. In assay [2], this compound had a Ki of 0.097 µM.

As for `N=C(N)Nc1ccc(CNC(=O)N2CCN(C(=O)O[C@H]3CCC[C@@H](OC(=O)N4CCN(C(=O)NCCCCCN)CC4)CCC3)CC2)cc1`, the pKi in assay [1] is under 3.00; in assay [3] it was under 3.00; in assay [4] it was 3.89. The Ki in assay [2] was found to be 0.0005 µM.

For the compound `N=C(N)Nc1ccc(CNC(=O)N2CCN(C(=O)OCC34CCC(COC(=O)N5CCN(C(=O)NCc6ccc(NC(=N)N)cc6)CC5)(CC3)CC4)CC2)cc1`, the results for the pKi in assay [1], in assay [3] and in assay [4] were 5.52, 3.91 and 4.70, respectively. In assay [2], this compound showed a Ki of 0.0004 µM.

`O=C(CCCC1CCNCC1)N1CCN(C(=O)O[C@H]2CCC[C@@H](OC(=O)N3CCN(C(=O)CCCC4CCNCC4)CC3)CCC2)CC1`: the pKi in assay [1], in assay [3] and in assay [4] was under 3.00 throughout. In assay [2], this compound displayed a Ki of 0.1 µM.

Take `N=C(N)N1CCC(CC(=O)N2CCN(C(=O)O[C@H]3CCC[C@@H](OC(=O)N4CCN(C(=O)CC5CCN(C(=N)N)CC5)CC4)CCC3)CC2)CC1`: the pKi in assay [1] was under 3.00; in assay [3], 3.89; in assay [4], 3.35. In assay [2], this compound displayed a Ki of 0.005 µM.

Take `N=C(N)Nc1ccc(CNC(=O)N2CCN(C(=O)CCCCCCCC(=O)N3CCN(C(=O)NCc4ccc(NC(=N)N)cc4)CC3)CC2)cc1`: the results for the pKi in assay [1], in assay [3] and in assay [4] were under 3.00, under 3.00 and 4.54, respectively. Further, the Ki in assay [2] was 0.0005 µM.

Regarding `O=C(CCCCCn1ccnc1)N1CCN(C(=O)O[C@H]2CCC[C@@H](OC(=O)N3CCN(C(=O)CCCCCn4ccnc4)CC3)CCC2)CC1`, the pKi in assay [1], in assay [3] and in assay [4] was under 3.00 throughout. Further, in assay [2], the Ki stood at 46 µM.

For the compound `N=C(N)Nc1ccc(CNC(=O)N2CCN(C(=O)OC[C@H]3C4C=CC(CC4)[C@@H]3COC(=O)N3CCN(C(=O)NCc4ccc(NC(=N)N)cc4)CC3)CC2)cc1`, the pKi in assay [1] is 3.15; in assay [3], 3.86; in assay [4], 4.82. For the same compound, the Ki in assay [2] came out at 0.008 µM.

For the compound `N=C(N)Nc1ccc(CNC(=O)N2CCN(C(=O)O[C@H]3CCC[C@@H](OC(=O)N4CCN(C(=O)CCc5cnc(N)nc5)CC4)CCC3)CC2)cc1`, the pKi in assay [1] is under 3.00; in assay [3], under 3.00; in assay [4] it was 3.78. For the same compound, in assay [2], the Ki was 41 µM.

Take `CC(=N)N1CCC(CCNC(=O)N2CCN(C(=O)O[C@H]3CCC[C@@H](OC(=O)N4CCN(C(=O)NCCC5CCN(C(C)=N)CC5)CC4)CCC3)CC2)CC1`: the pKi in assay [1], in assay [3] and in assay [4] was under 3.00 in each case. This compound also came in with a Ki in assay [2] of 255 µM.

As for `N=C(N)Nc1ccc(CNC(=O)N2CCN(C(=O)O[C@H]3CCC[C@@H](OC(=O)N4CCN(C(=O)NCC5CCNCC5)CC4)CCC3)CC2)cc1`, the pKi in assay [1] is under 3.00; in assay [3], under 3.00; in assay [4], 3.83. The compound also yielded a Ki in assay [2] of 0.07 µM.

`N=C(N)Nc1ccc(CNC(=O)N2CCN(C(=O)OCC34CC5CC(C3)CC(COC(=O)N3CCN(C(=O)NCc6ccc(NC(=N)N)cc6)CC3)(C5)C4)CC2)cc1`: the figures for the pKi in assay [1], in assay [3] and in assay [4] were 3.24, 3.44 and 4.77, respectively. The Ki in assay [2] was found to be 0.01 µM.

Consider `N=C(N)Nc1ccc(CNC(=O)N2CCN(C(=O)O[C@H]3CCC[C@@H](OC(=O)N4CCN(C(=O)NCc5ccc(N)cc5)CC4)CCC3)CC2)cc1`, for which the pKi in assay [1] is under 3.00; in assay [3], under 3.00; in assay [4], 3.90. This compound also displayed a Ki in assay [2] of 0.82 µM.

The values above are taken from ChEMBL document CHEMBL1132784, “Dibasic inhibitors of human mast cell tryptase. Part 2: structure-activity relationships and requirements for potent activity” (Bioorg Med Chem Lett, 2000).
